Reference: ChEMBL document CHEMBL2034905, “Synthesis of benzimidazolyl-1,3,4-oxadiazol-2ylthio-N-phenyl (benzothiazolyl) acetamides as antibacterial, antifungal and antituberculosis agents” (Eur J Med Chem, 2012)
≈ marks a conversion by molar mass, not a printed value.

Columns and labels:
[1] = test system: Mycobacterium tuberculosis; test: Antituberculosis activity against Mycobacterium tuberculosis H37Rv by Lowenstein-Jensen method; assay type: functional
[2] = test system: Mycobacterium tuberculosis; test: Antituberculosis activity against Mycobacterium tuberculosis H37Rv at 6.25 ug/ml by Lowenstein-Jensen method; assay type: functional
[3] = Lipophilicity, log P of the compound; assay type: physicochemical; conditions: octanol/water
[4] = test system: Staphylococcus aureus; test: Antibacterial activity against Staphylococcus aureus MTCC 96 at 100 ug/disc by paper disc diffusion technique; assay type: functional; conditions: read-out: IZ
[5] = test system: Bacillus cereus; test: Antibacterial activity against Bacillus cereus MTCC 430 at 100 ug/disc by paper disc diffusion technique; assay type: functional; conditions: read-out: IZ
[6] = test system: Escherichia coli; test: Antibacterial activity against Escherichia coli MTCC 739 at 100 ug/disc by paper disc diffusion technique; assay type: functional; conditions: read-out: IZ
[7] = test system: Pseudomonas aeruginosa; test: Antibacterial activity against Pseudomonas aeruginosa MTCC 741 at 100 ug/disc by paper disc diffusion technique; assay type: functional; conditions: read-out: IZ
[8] = test system: Klebsiella pneumoniae; test: Antibacterial activity against Klebsiella pneumoniae MTCC 109 at 100 ug/disc by paper disc diffusion technique; assay type: functional; conditions: read-out: IZ
[9] = test system: Salmonella typhi; test: Antibacterial activity against Salmonella typhi MTCC 733 at 100 ug/disc by paper disc diffusion technique; assay type: functional, Salmonella enterica subsp. enterica serovar Typhi; conditions: Salmonella enterica, read-out: IZ
[10] = test system: Proteus vulgaris; test: Antibacterial activity against Proteus vulgaris MTCC 1771 at 100 ug/disc by paper disc diffusion technique; assay type: functional; conditions: read-out: IZ
[11] = test system: Shigella flexneri; test: Antibacterial activity against Shigella flexneri MTCC 1457 at 100 ug/disc by paper disc diffusion technique; assay type: functional; conditions: read-out: IZ
[12] = test system: Staphylococcus aureus; test: Antibacterial activity against Staphylococcus aureus MTCC 96 by agar streak dilution method; assay type: functional
[13] = test system: Bacillus cereus; test: Antibacterial activity against Bacillus cereus MTCC 430 by agar streak dilution method; assay type: functional
[14] = test system: Escherichia coli; test: Antibacterial activity against Escherichia coli MTCC 739 by agar streak dilution method; assay type: functional
[15] = test system: Pseudomonas aeruginosa; test: Antibacterial activity against Pseudomonas aeruginosa MTCC 741 by agar streak dilution method; assay type: functional
[16] = test system: Klebsiella pneumoniae; test: Antibacterial activity against Klebsiella pneumoniae MTCC 109 by agar streak dilution method; assay type: functional
[17] = test system: Salmonella typhi; test: Antibacterial activity against Salmonella typhi MTCC 733 by agar streak dilution method; assay type: functional, Salmonella enterica subsp. enterica serovar Typhi; conditions: Salmonella enterica
[18] = test system: Proteus vulgaris; test: Antibacterial activity against Proteus vulgaris MTCC 1771 by agar streak dilution method; assay type: functional
[19] = test system: Shigella flexneri; test: Antibacterial activity against Shigella flexneri MTCC 1457 by agar streak dilution method; assay type: functional
[20] = test system: Aspergillus niger; test: Antifungal activity against Aspergillus niger MTCC 282 at 100 ug/disc by paper disc diffusion technique; assay type: functional; conditions: read-out: IZ
[21] = test system: Aspergillus fumigatus; test: Antifungal activity against Aspergillus fumigatus MTCC 343 at 100 ug/disc by paper disc diffusion technique; assay type: functional; conditions: read-out: IZ
[22] = test system: Aspergillus clavatus; test: Antifungal activity against Aspergillus clavatus MTCC 1323 at 100 ug/disc by paper disc diffusion technique; assay type: functional; conditions: read-out: IZ
[23] = test system: Candida albicans; test: Antifungal activity against Candida albicans MTCC 183 at 100 ug/disc by paper disc diffusion technique; assay type: functional; conditions: read-out: IZ
[24] = test system: Aspergillus niger; test: Antifungal activity against Aspergillus niger MTCC 282 by agar streak dilution method; assay type: functional
[25] = test system: Aspergillus fumigatus; test: Antifungal activity against Aspergillus fumigatus MTCC 343 by agar streak dilution method; assay type: functional
[26] = test system: Aspergillus clavatus; test: Antifungal activity against Aspergillus clavatus MTCC 1323 by agar streak dilution method; assay type: functional
[27] = test system: Candida albicans; test: Antifungal activity against Candida albicans MTCC 183 by agar streak dilution method; assay type: functional
[28] = test system: Mycobacterium tuberculosis; test: Antituberculosis activity against Mycobacterium tuberculosis H37Rv by BACTEC MGIT method; assay type: functional

Row | SMILES | MIC [1] [µg/mL] | inhibition at 6.25 µg/mL [2] [%] | logP [3] | zone of inhibition at 100 µg/disc [4] [mm] | zone of inhibition at 100 µg/disc [5] [mm] | zone of inhibition at 100 µg/disc [6] [mm] | zone of inhibition at 100 µg/disc [7] [mm] | zone of inhibition at 100 µg/disc [8] [mm] | zone of inhibition at 100 µg/disc [9] [mm] | zone of inhibition at 100 µg/disc [10] [mm] | zone of inhibition at 100 µg/disc [11] [mm] | MIC [12] [µg/mL] | MIC [13] [µg/mL] | MIC [14] [µg/mL] | MIC [15] [µg/mL] | MIC [16] [µg/mL] | MIC [17] [µg/mL] | MIC [18] [µg/mL] | MIC [19] [µg/mL] | zone of inhibition at 100 µg/disc [20] [mm] | other results
1 | O=C(CSc1nnc(Cn2cnc3ccccc32)o1)Nc1nc2ccc(Cl)cc2s1 | 62.5 (≈ 137 µM) | 97 | 4.25 | 22 | 27 | 20 | 23 | 20 | 22 | 20 | 25 | 12.5 (≈ 27.4 µM) | 6.25 (≈ 13.7 µM) | 50 (≈ 109 µM) | 25 (≈ 54.7 µM) | 50 (≈ 109 µM) | 50 (≈ 109 µM) | 50 (≈ 109 µM) | 6.25 (≈ 13.7 µM) | 16 | zone of inhibition at 100 µg/disc [21]: 13 mm; zone of inhibition at 100 µg/disc [22]: 15 mm; zone of inhibition at 100 µg/disc [23]: 14 mm; MIC [24]: 100 µg/mL (≈ 219 µM); MIC [25]: 100 µg/mL (≈ 219 µM); MIC [26]: 100 µg/mL (≈ 219 µM); MIC [27]: 100 µg/mL (≈ 219 µM); MIC [28]: > 6.25 µg/mL
2 | O=C(CSc1nnc(Cn2cnc3ccccc32)o1)Nc1nc2ccccc2s1 | 500 (≈ 1180 µM) | 94 | 3.69 | 15 | 14 | 15 | 12 | < 10 | < 10 | 17 | 13 | 50 (≈ 118 µM) | 100 (≈ 237 µM) | 100 (≈ 237 µM) | 100 (≈ 237 µM) | 100 (≈ 237 µM) | 100 (≈ 237 µM) | 100 (≈ 237 µM) | 100 (≈ 237 µM) | < 10 | zone of inhibition at 100 µg/disc [21]: < 10 mm; zone of inhibition at 100 µg/disc [22]: < 10 mm; zone of inhibition at 100 µg/disc [23]: 13 mm; MIC [24]: 100 µg/mL (≈ 237 µM); MIC [25]: 100 µg/mL (≈ 237 µM); MIC [26]: 100 µg/mL (≈ 237 µM); MIC [27]: 100 µg/mL (≈ 237 µM); MIC [28]: > 6.25 µg/mL
3 | O=C(CSc1nnc(Cn2cnc3ccccc32)o1)Nc1nc2ccc(F)cc2s1 | 12.5 (≈ 28.4 µM) | 99 | 3.85 | 25 | 29 | 17 | 20 | 19 | 24 | 22 | 24 | 3.12 (≈ 7.08 µM) | 6.25 (≈ 14.2 µM) | 50 (≈ 114 µM) | 50 (≈ 114 µM) | 50 (≈ 114 µM) | 25 (≈ 56.8 µM) | 25 (≈ 56.8 µM) | 6.25 (≈ 14.2 µM) | 21 | zone of inhibition at 100 µg/disc [21]: 23 mm; zone of inhibition at 100 µg/disc [22]: 21 mm; zone of inhibition at 100 µg/disc [23]: 23 mm; MIC [24]: 25 µg/mL (≈ 56.8 µM); MIC [25]: 25 µg/mL (≈ 56.8 µM); MIC [26]: 50 µg/mL (≈ 114 µM); MIC [27]: 50 µg/mL (≈ 114 µM); MIC [28]: > 6.25 µg/mL
